This experiment has as its system MCF7. Put plainly: Breast Cancer Cell Proliferation Assay (MCF-7), Cell Titer-Glo. Format: cell-based. The settings on record: Homo sapiens, MCF7, 120 h, MCF7 cells, 5 days of compound exposure. As to the method:
Breast Cancer Cell Proliferation Assay (MCF-7)
MCF7 was expanded and maintained in the medium (Phenol red free DMEM/F12 (Hyclone SH30272.01) NEAA (Gibco11140-050) Na-pyruvate (Gibco 11360-070) and Re-stripped Charcoal stripped FBS (Gemini 100-119)). The cells were adjusted to a concentration of 3,000 cells per mL in the above media, and the cells were incubated (37° C., 5% CO2). The following day a 10-point, serial dilution of compounds was added to the cells at a final concentration ranging from 10-0.000005 μM for test compounds (17β-estradiol was used as a control). Additional cells were plated in 30 wells to serve as the day 1 (pretreatment) comparison. After 5 days of compound exposure, Cell Titer-Glo reagent was added to the cells and the relative luminescence units (RLUs) of each well was determined. Cell Titer-Glo was also added to 32 μL of medium without cells to obtain a background value. The plates were allowed to incubate at room temperature for 10 minutes to stabilize luminescent signal and the luminescence signal was recorded with EnSpire. The relative increase in cell number of each sample is determined as follows: (RLU sample-RLU background/RLU estrogen only treated cells-RLU background)×100=% inhibition.
A general note: Cellular ATP, detected with luciferase, serves as a proxy for viable cell number.

In turn, `C[C@@H]1Cc2c([nH]c3ccccc23)[C@@H](c2ccc(N[C@H]3CCN(CCCF)C3)cn2)N1C12CC(C1)C2` [Compound 55, 6-((1S,3R)-2-(bicyclo[1.1.1]pentan-1-yl)-3-methyl-2,3,4,9-tetrahydro-1H-pyrido[3,4-b]indol-1-yl)-N—((S)-1-(3-fluoropropyl)pyrrolidin-3-yl)pyridin-3-amine] had an IC50 of no less than 250 nM. As for `COc1cc(NC2CN(CCCF)C2)cc(F)c1[C@@H]1c2[nH]c3ccccc3c2C[C@@H](C)N1C12CC(C1)C2` [Compound 92, N-(4-((1R,3R)-2-(bicyclo[1.1.1]pentan-1-yl)-3-methyl-2,3,4,9-tetrahydro-1H-pyrido[3,4-b]indol-1-yl)-3-fluoro-5-methoxyphenyl)-1-(3-fluoropropyl)azetidin-3-amine], the half-maximal inhibitory concentration (IC50) is no more than 25 nM. For `C[C@@H]1Cc2c([nH]c3ccccc23)[C@@H](c2c(F)cc(NC3CN(CCF)C3)cc2F)N1C12CC(C1)C2` [Compound 56, N-(4-((1R,3R)-2-(bicyclo[1.1.1]pentan-1-yl)-3-methyl-2,3,4,9-tetrahydro-1H-pyrido[3,4-b]indol-1-yl)-3,5-difluorophenyl)-1-(2-fluoroethyl)azetidin-3-amine], the IC50 was no more than 25 nM. With `C[C@@H]1Cc2c([nH]c3ccccc23)[C@@H](c2ccc(O[C@@H]3CCN(CCCF)C3)nc2)N1C12CC(C1)C2` (single isomer, unassigned) [Compound 9], the half-maximal inhibitory concentration (IC50) lay in the range of 25 to 250 nM. In turn, `C[C@@H]1Cc2c([nH]c3ccccc23)[C@@H](c2ccc(O[C@@H]3CCN(CCCF)C3)cc2)N1C12CC(C1)C2` (single isomer, unassigned) [Compound 7] registered a half-maximal inhibitory concentration (IC50) of 25 to 250 nM.

For the molecule `C[C@@H]1Cc2c([nH]c3ccccc23)[C@@H](c2c(F)cc(O[C@H]3CCN(CCCF)C3)cc2F)N1C12CC(C(N)=O)(C1)C2` (single isomer, unassigned) [Compound 35], the IC50 is no more than 25 nM. Regarding `CCCN1C[C@@H](Nc2ccc([C@@H]3c4[nH]c5ccccc5c4C[C@@H](C)N3C34CC(C3)C4)cc2)C[C@@H]1C` [Compound 89, (3S,5S)—N-(4-((1R,3R)-2-(bicyclo[1.1.1]pentan-1-yl)-3-methyl-2,3,4,9-tetrahydro-1H-pyrido[3,4-b]indol-1-yl)phenyl)-5-methyl-1-propylpyrrolidin-3-amine], the IC50 lay in the range of 25 to 250 nM.

The molecule `C[C@@H]1Cc2c([nH]c3ccccc23)[C@@H](c2cnc(NC3CN(CCCF)C3)nc2)N1C12CC(C1)C2` [Compound 57, 5-((1R,3R)-2-(bicyclo[1.1.1]pentan-1-yl)-3-methyl-2,3,4,9-tetrahydro-1H-pyrido[3,4-b]indol-1-yl)-N-(1-(3-fluoropropyl)azetidin-3-yl)pyrimidin-2-amine] returned an IC50 of 25 to 250 nM.

The molecule `C[C@@H]1Cc2c([nH]c3ccccc23)[C@@H](c2cnc(N[C@H]3CCN(CCCF)C3)cn2)N1C12CC(C1)C2` [Compound 44, 5-((1S,3R)-2-(bicyclo[1.1.1]pentan-1-yl)-3-methyl-2,3,4,9-tetrahydro-1H-pyrido[3,4-b]indol-1-yl)-N—((S)-1-(3-fluoropropyl)pyrrolidin-3-yl)pyrazin-2-amine] displayed an IC50 of no less than 250 nM. Turning to `C[C@H]1Cc2c([nH]c3ccccc23)[C@H](c2c(F)cc(O[C@@H]3CCN(CCCF)C3)cc2F)N1C12CC(C(N)=O)(C1)C2` (single isomer, unassigned) [Compound 33], the IC50 was no less than 250 nM.

`C[C@@H]1Cc2c([nH]c3ccccc23)[C@@H](c2ccc(NCCN3CCC(F)C3)nc2)N1C12CC(C1)C2` (stereo partly drawn) [Compound 28, 5-((1R,3R)-2-(bicyclo[1.1.1]pentan-1-yl)-3-methyl-2,3,4,9-tetrahydro-1H-pyrido[3,4-b]indol-1-yl)-N-(2-(3-fluoropyrrolidin-1-yl)ethyl)pyridin-2-amine] showed an IC50 of no less than 250 nM.

Consider `CCCN1CC[C@H](Nc2cnc([C@@H]3c4[nH]c5ccccc5c4C[C@@H](C)N3C34CC(C3)C4)cn2)C1` [Compound 54, 5-((1S,3R)-2-(bicyclo[1.1.1]pentan-1-yl)-3-methyl-2,3,4,9-tetrahydro-1H-pyrido[3,4-b]indol-1-yl)-N—((S)-1-propylpyrrolidin-3-yl)pyrazin-2-amine], for which the IC50 is no more than 25 nM.

Consider `C[C@H]1Cc2c([nH]c3ccccc23)[C@H](c2ccc(OC3CN(CCCF)C3)cc2)N1C12CC(CO)(C1)C2` (single isomer, unassigned) [Compound 51], for which the IC50 lay in the range of 25 to 250 nM. The figure for `CCCNCC1CCN(c2ccc([C@@H]3c4[nH]c5ccccc5c4C[C@@H](C)N3C34CC(C3)C4)cc2)CC1` [Compound 93, N-((1-(4-((1R,3R)-2-(bicyclo[1.1.1]pentan-1-yl)-3-methyl-2,3,4,9-tetrahydro-1H-pyrido[3,4-b]indol-1-yl)phenyl)piperidin-4-yl)methyl)propan-1-amine] is no more than 25 nM; for `C[C@@H]1Cc2c([nH]c3ccccc23)[C@@H](c2ncc(NC3CN(CCCF)C3)cc2F)N1C12CC(C1)C2` [Compound 13, 6-((1S,3R)-2-(bicyclo[1.1.1]pentan-1-yl)-3-methyl-2,3,4,9-tetrahydro-1H-pyrido[3,4-b]indol-1-yl)-5-fluoro-N-(1-(3-fluoropropyl)azetidin-3-yl)pyridin-3-amine] it is no more than 25 nM; for `C#CCN1CC(Nc2ccc([C@@H]3c4[nH]c5ccccc5c4C[C@@H](C)N3C34CC(C3)C4)nc2)C1` [Compound 48, 6-((1S,3R)-2-(bicyclo[1.1.1]pentan-1-yl)-3-methyl-2,3,4,9-tetrahydro-1H-pyrido[3,4-b]indol-1-yl)-N-(1-(prop-2-yn-1-yl)azetidin-3-yl)pyridin-3-amine] it is no more than 25 nM.

For the molecule `C[C@@H]1Cc2c([nH]c3ccccc23)[C@@H](c2ccc(OC3CN(CCCF)C3)cc2)N1C12CC(CO)(C1)C2` (single isomer, unassigned) [Compound 50], the concentration for half-maximal inhibition (IC50) is no more than 25 nM.

On to `C[C@@H]1Cc2c([nH]c3ccccc23)[C@@H](c2ccc(N[C@H]3CCN(CCCF)C3)nc2)N1C12CC(C1)C2` [Compound 20, 5-((1R,3R)-2-(bicyclo[1.1.1]pentan-1-yl)-3-methyl-2,3,4,9-tetrahydro-1H-pyrido[3,4-b]indol-1-yl)-N—((S)-1-(3-fluoropropyl)pyrrolidin-3-yl)pyridin-2-amine], for which the IC50 was no more than 25 nM. On to `C[C@@H]1Cc2c([nH]c3ccccc23)[C@@H](c2ccc(N3CC(NCCCF)C3)cn2)N1C12CC(C1)C2` [Compound 49, 1-(6-((1S,3R)-2-(bicyclo[1.1.1]pentan-1-yl)-3-methyl-2,3,4,9-tetrahydro-1H-pyrido[3,4-b]indol-1-yl)pyridin-3-yl)-N-(3-fluoropropyl)azetidin-3-amine], for which the IC50 was no less than 250 nM.

Consider `C[C@]12CC[C@@H]3c4ccc(O)cc4C[C@@H](CCCCCCCCC[S+]([O-])CCCC(F)(F)C(F)(F)F)[C@H]3[C@@H]1CC[C@@H]2O` (stereo partly shown) [fulvestrant, reference compound], for which the IC50 is no more than 25 nM.

The molecule `C[C@@H]1Cc2c([nH]c3ccccc23)[C@@H](c2c(F)cc(OCCN3CCCC3)cc2F)N1C12CC(C1)C2` [Compound 26, (1R,3R)-2-(bicyclo[1.1.1]pentan-1-yl)-1-(2,6-difluoro-4-(2-(pyrrolidin-1-yl)ethoxy)phenyl)-3-methyl-2,3,4,9-tetrahydro-1H-pyrido[3,4-b]indole] yielded a concentration for half-maximal inhibition (IC50) of no less than 250 nM. In the case of `C[C@H]1Cc2c([nH]c3ccccc23)[C@H](c2c(F)cc(N[C@H]3CCN(CCCF)C3)cc2F)N1C12CC(CO)(C1)C2` (single isomer, unassigned) [Compound 71], the IC50 is no more than 25 nM.

Broadly, the IC50 is the midpoint of a concentration-inhibition curve. High values mean weaker potency in that assay, low ones greater potency in that assay.

Values taken from US11999728B2, “Estrogen receptor modulators” (Recurium IP Holdings, LLC, priority 2020, dated 2024).
